Measured values taken from US9422293B2 (priority 2006, dated 2016).
Where a name gives a salt, the structure may show the parent alone.

Target: rat TRPV1 (Rattus norvegicus (Rat), UniProt O35433)
Settings: read-out: Rat IC50

Chain of rat TRPV1 (O35433 whole entry): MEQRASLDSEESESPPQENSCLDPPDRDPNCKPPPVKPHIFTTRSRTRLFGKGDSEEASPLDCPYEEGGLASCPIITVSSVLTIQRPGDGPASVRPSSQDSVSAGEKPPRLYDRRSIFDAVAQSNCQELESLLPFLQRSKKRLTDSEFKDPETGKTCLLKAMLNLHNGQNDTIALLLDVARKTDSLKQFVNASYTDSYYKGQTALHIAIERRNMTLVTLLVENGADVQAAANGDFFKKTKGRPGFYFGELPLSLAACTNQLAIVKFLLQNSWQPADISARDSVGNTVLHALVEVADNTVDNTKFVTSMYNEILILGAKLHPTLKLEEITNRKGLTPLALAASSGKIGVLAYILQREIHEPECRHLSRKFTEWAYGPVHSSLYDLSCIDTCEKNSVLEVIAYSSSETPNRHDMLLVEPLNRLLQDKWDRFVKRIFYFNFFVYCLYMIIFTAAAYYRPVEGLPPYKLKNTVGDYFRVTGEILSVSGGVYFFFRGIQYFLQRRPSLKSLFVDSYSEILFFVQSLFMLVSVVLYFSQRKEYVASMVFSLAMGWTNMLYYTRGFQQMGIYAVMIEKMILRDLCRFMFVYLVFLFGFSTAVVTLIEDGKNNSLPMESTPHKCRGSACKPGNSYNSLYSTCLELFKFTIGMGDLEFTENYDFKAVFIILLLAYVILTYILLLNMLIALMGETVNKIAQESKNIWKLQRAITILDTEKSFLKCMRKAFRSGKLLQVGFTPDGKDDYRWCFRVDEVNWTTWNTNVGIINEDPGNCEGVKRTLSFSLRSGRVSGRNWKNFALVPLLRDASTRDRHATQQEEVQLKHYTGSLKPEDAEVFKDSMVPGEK

SMILES | IC50 [nM]
CC(C)c1nc2c(c(Nc3ccc(C(C)(C)C(=O)O)cc3)n1)CCN(c1ncccc1C(F)(F)F)CC2 [Example 184, 2-Methyl-2-[4-({2-(1-methylethyl)-7-[3-(trifluoromethyl)pyridin-2-yl]-6,7,8,9-tetrahydro-5H-pyrimido[4,5-d]azepin-4-yl}amino)phenyl]propanoic acid] | 1950
CC(C)(C(=O)O)c1ccc(Nc2nc(N3CCCCC3)nc3c2CCN(c2ncccc2C(F)(F)F)CC3)cc1 [Example 186, 2-Methyl-2-[4-({2-piperidin-1-yl-7-[3-(trifluoromethyl)pyridin-2-yl]-6,7,8,9-tetrahydro-5H-pyrimido[4,5-d]azepin-4-yl}amino)phenyl]propanoic acid] | 140
Cc1cnc(Nc2nc(C(C)C)nc3c2CCN(c2ncccc2C(F)(F)F)CC3)cn1 [Example 187, 2-(1-Methylethyl)-N-(5-methylpyrazin-2-yl)-7-[3-(trifluoromethyl)pyridin-2-yl]-6,7,8,9-tetrahydro-5H-pyrimido[4,5-d]azepin-4-amine hydrochloride salt] | 2850
CC(C)c1nc2c(c(Nc3ccc(C(F)(F)F)c(Cl)n3)n1)CCN(c1ncccc1C(F)(F)F)CC2 [Example 188, N-[6-Chloro-5-(trifluoromethyl)pyridin-2-yl]-2-(1-methylethyl)-7-[3-(trifluoromethyl)pyridin-2-yl]-6,7,8,9-tetrahydro-5H-pyrimido[4,5-d]azepin-4-amine hydrochloride salt] | 1590
FC(F)(F)c1ccc(Nc2nc(-c3ccncc3)nc3c2CCN(c2ncccc2C(F)(F)F)CC3)nc1 [Example 190, 2-Pyridin-4-yl-7-[3-(trifluoromethyl)pyridin-2-yl]-N-[5-(trifluoromethyl)pyridin-2-yl]-6,7,8,9-tetrahydro-5H-pyrimido[4,5-d]azepin-4-amine trifluoroacetic acid salt] | 1160
CC(C)c1nc2c(c(Nc3cnc(C(F)(F)F)cn3)n1)CCN(c1ncccc1C(F)(F)F)CC2 [Example 191, [2-Isopropyl-7-(3-trifluoromethyl-pyridin-2-yl)-6,7,8,9-tetrahydro-5H-pyrimido[4,5-d]azepin-4-yl]-(5-trifluoromethyl-pyrazin-2-yl)-amine] | 260
FC(F)(F)c1cnc(Nc2nc(N3CCCCC3)nc3c2CCN(c2ncccc2C(F)(F)F)CC3)cn1 [Example 192, [2-Piperidin-1-yl-7-(3-trifluoromethyl-pyridin-2-yl)-6,7,8,9-tetrahydro-5H-pyrimido[4,5-d]azepin-4-yl]-(5-trifluoromethyl-pyrazin-2-yl)-amine] | 70
CN1CCN(c2nc3c(c(Nc4ccc(C(F)(F)F)cn4)n2)CCN(c2ncccc2C(F)(F)F)CC3)CC1 [Example 193, 2-(4-Methylpiperazin-1-yl)-7-[3-(trifluoromethyl)pyridin-2-yl]-N-[5-(trifluoromethyl)pyridin-2-yl]-6,7,8,9-tetrahydro-5H-pyrimido[4,5-d]azepin-4-amine] | 2110
FC(F)(F)c1ccc(Nc2nc(N3CCCCCC3)nc3c2CCN(c2ncccc2C(F)(F)F)CC3)nc1 [Example 194, 2-Azepan-1-yl-7-[3-(trifluoromethyl)pyridin-2-yl]-N-[5-(trifluoromethyl)pyridin-2-yl]-6,7,8,9-tetrahydro-5H-pyrimido[4,5-d]azepin-4-amine] | 70
FC(F)(F)c1ccc(Nc2nc(N3CCC3)nc3c2CCN(c2ncccc2C(F)(F)F)CC3)nc1 [Example 197, 2-Azetidin-1-yl-7-[3-(trifluoromethyl)pyridin-2-yl]-N-[5-(trifluoromethyl)pyridin-2-yl]-6,7,8,9-tetrahydro-5H-pyrimido[4,5-d]azepin-4-amine trifluoroacetic acid salt] | 150
CC(C)c1nc2c(c(Nc3ccc(N)cc3)n1)CCN(c1ncccc1C(F)(F)F)CC2 [Example 198, N-{2-(1-Methylethyl)-7-[3-(trifluoromethyl)pyridin-2-yl]-6,7,8,9-tetrahydro-5H-pyrimido[4,5-d]azepin-4-yl}benzene-1,4-diamine trifluoroacetic acid salt] | 9160
CC(C)c1nc2c(c(Nc3ccc(C(C)(C)C)c(N)c3)n1)CCN(c1ncccc1C(F)(F)F)CC2 [Example 199, 4-(1,1-Dimethylethyl)-N1-{2-(1-methylethyl)-7-[3-(trifluoromethyl)pyridin-2-yl]-6,7,8,9-tetrahydro-5H-pyrimido[4,5-d]azepin-4-yl}benzene-1,3-diamine] | 1360
CC(C)(C)c1ccc(Nc2nc(N3CCCCC3)nc3c2CCN(c2ncccc2C(F)(F)F)CC3)cc1N [Example 200, 4-(1,1-Dimethylethyl)-N1-{2-piperidin-1-yl-7-[3-(trifluoromethyl)pyridin-2-yl]-6,7,8,9-tetrahydro-5H-pyrimido[4,5-d]azepin-4-yl}benzene-1,3-diamine] | 110
CC(C)c1nc2c(c(Nc3ccc(C(C)(C)C)cc3)n1)CCN(c1ncc(N)cc1C(F)(F)F)CC2 [Example 201, 7-[5-Amino-3-(trifluoromethyl)pyridin-2-yl]-N-[4-(1,1-dimethylethyl)phenyl]-2-(1-methylethyl)-6,7,8,9-tetrahydro-5H-pyrimido[4,5-d]azepin-4-amine] | 320
CSc1nc2c(c(Nc3ccc(C(C)(C)C)cc3)n1)CCN(c1ncccc1C(F)(F)F)CC2 [Example 202, N-[4-(1,1-Dimethylethyl)phenyl]-2-(methylsulfanyl)-7-[3-(trifluoromethyl)pyridin-2-yl]-6,7,8,9-tetrahydro-5H-pyrimido[4,5-d]azepin-4-amine] | 12400
CSc1nc2c(c(Nc3ccc(C(F)(F)F)cc3Cl)n1)CCN(c1ncccc1C(F)(F)F)CC2 [Example 203, N-[2-Chloro-4-(trifluoromethyl)phenyl]-2-(methylsulfanyl)-7-[3-(trifluoromethyl)pyridin-2-yl]-6,7,8,9-tetrahydro-5H-pyrimido[4,5-d]azepin-4-amine] | > 6670
CSc1nc2c(c(Nc3ccc(C(F)(F)F)cc3C)n1)CCN(c1ncccc1C(F)(F)F)CC2 [Example 204, 2-(Methylsulfanyl)-N-[2-methyl-4-(trifluoromethyl)phenyl]-7-[3-(trifluoromethyl)pyridin-2-yl]-6,7,8,9-tetrahydro-5H-pyrimido[4,5-d]azepin-4-amine] | 560
CSc1nc2c(c(Nc3ccc4c(c3)N(C)CCC4)n1)CCN(c1ncccc1C(F)(F)F)CC2 [Example 205, 2-(Methylsulfanyl)-N-(1-methyl-1,2,3,4-tetrahydroquinolin-7-yl)-7-[3-(trifluoromethyl)pyridin-2-yl]-6,7,8,9-tetrahydro-5H-pyrimido[4,5-d]azepin-4-amine] | 2280
CC(C)(C)c1ccc(Nc2nc(S(C)(=O)=O)nc3c2CCN(c2ncccc2C(F)(F)F)CC3)cc1 [Example 207, N-[4-(1,1-Dimethylethyl)phenyl]-2-(methylsulfonyl)-7-[3-(trifluoromethyl)pyridin-2-yl]-6,7,8,9-tetrahydro-5H-pyrimido[4,5-d]azepin-4-amine] | 770
Cc1cc(C(F)(F)F)ccc1Nc1nc(S(C)(=O)=O)nc2c1CCN(c1ncccc1C(F)(F)F)CC2 [Example 209, 2-(Methylsulfonyl)-N-[2-methyl-4-(trifluoromethyl)phenyl]-7-[3-(trifluoromethyl)pyridin-2-yl]-6,7,8,9-tetrahydro-5H-pyrimido[4,5-d]azepin-4-amine] | 3450
O=S1(=O)CCCCN1c1nc2c(c(Nc3ccc(C(F)(F)F)cc3)n1)CCN(c1ncccc1C(F)(F)F)CC2 [Example 212, 2-(1,1-Dioxido-1,2-thiazinan-2-yl)-N-[4-(trifluoromethyl)phenyl]-7-[3-(trifluoromethyl)pyridin-2-yl]-6,7,8,9-tetrahydro-5H-pyrimido[4,5-d]azepin-4-amine trifluoroacetic acid salt] | 220
COCCNc1nc2c(c(Nc3ccc(C(F)(F)F)cc3)n1)CCN(c1ncccc1C(F)(F)F)CC2 [Example 213, N^2-[2-(Methyloxy)ethyl]-N^4-[4-(trifluoromethyl)phenyl]-7-[3-(trifluoromethyl)pyridin-2-yl]-6,7,8,9-tetrahydro-5H-pyrimido[4,5-d]azepine-2,4-diamine trifluoroacetic acid salt] | 110
COC[C@@H]1CCCN1c1nc2c(c(Nc3ccc(C(F)(F)F)cc3)n1)CCN(c1ncccc1C(F)(F)F)CC2 [Example 215, 2-{(2S)-2-[(Methyloxy)methyl]pyrrolidin-1-yl}-N-[4-(trifluoromethyl)phenyl]-7-[3-(trifluoromethyl)pyridin-2-yl]-6,7,8,9-tetrahydro-5H-pyrimido[4,5-d]azepin-4-amine trifluoroacetic acid salt] | 10
CN(Cc1ccco1)c1nc2c(c(Nc3ccc(C(F)(F)F)cc3)n1)CCN(c1ncccc1C(F)(F)F)CC2 [Example 216, N^2-(Furan-2-ylmethyl)-N^2-methyl-N^4-[4-(trifluoromethyl)phenyl]-7-[3-(trifluoromethyl)pyridin-2-yl]-6,7,8,9-tetrahydro-5H-pyrimido[4,5-d]azepine-2,4-diamine trifluoroacetic acid salt] | 50
FC(F)(F)c1ccc(Nc2nc(N3CCC3)nc3c2CCN(c2ncccc2C(F)(F)F)CC3)cn1 [Example 217, 2-Azetidin-1-yl-7-[3-(trifluoromethyl)pyridin-2-yl]-N-[6-(trifluoromethyl)pyridin-3-yl]-6,7,8,9-tetrahydro-5H-pyrimido[4,5-d]azepin-4-amine] | 390
CN(C)c1nc2c(c(NCc3ccc(C(F)(F)F)nc3)n1)CCN(c1ncccc1C(F)(F)F)CC2 [Example 218, N^2,N^2-Dimethyl-7-[3-(trifluoromethyl)pyridin-2-yl]-N^4-{[6-(trifluoromethyl)pyridin-3-yl]methyl}-6,7,8,9-tetrahydro-5H-pyrimido[4,5-d]azepine-2,4-diamine trifluoroacetic acid salt] | 120
CN1CCN(c2nc3c(c(Nc4ccc(C(F)(F)F)nc4)n2)CCN(c2ncccc2C(F)(F)F)CC3)CC1 [Example 220, 2-(4-Methylpiperazin-1-yl)-7-[3-(trifluoromethyl)pyridin-2-yl]-N-[6-(trifluoromethyl)pyridin-3-yl]-6,7,8,9-tetrahydro-5H-pyrimido[4,5-d]azepin-4-amine] | 1520
